Assay results as given in patent publication US8609342B2, “Reporter gene assay method” (Otsuka Pharmaceutical Co., Ltd., priority 2001, dated 2013).

Tests used:
androgen receptor = target: T1, androgen receptor (Homo sapiens, UniProt P10275); assay: Reporter gene assay for androgen receptor antagonist detection (luciferase activity); type: cell-based; settings: for antagonistic activity against the androgen receptor (judgment): judged from luciferase activity with EGFP activity as indication of cytotoxicity
T1 construct: expressed in transfected cells; host or cells: CHO-K1 cells, transiently transfected with pZeoSV2-AR, pIND ARE-B10 and pcDNA-EGFP
T1 sequence (P10275 1-920): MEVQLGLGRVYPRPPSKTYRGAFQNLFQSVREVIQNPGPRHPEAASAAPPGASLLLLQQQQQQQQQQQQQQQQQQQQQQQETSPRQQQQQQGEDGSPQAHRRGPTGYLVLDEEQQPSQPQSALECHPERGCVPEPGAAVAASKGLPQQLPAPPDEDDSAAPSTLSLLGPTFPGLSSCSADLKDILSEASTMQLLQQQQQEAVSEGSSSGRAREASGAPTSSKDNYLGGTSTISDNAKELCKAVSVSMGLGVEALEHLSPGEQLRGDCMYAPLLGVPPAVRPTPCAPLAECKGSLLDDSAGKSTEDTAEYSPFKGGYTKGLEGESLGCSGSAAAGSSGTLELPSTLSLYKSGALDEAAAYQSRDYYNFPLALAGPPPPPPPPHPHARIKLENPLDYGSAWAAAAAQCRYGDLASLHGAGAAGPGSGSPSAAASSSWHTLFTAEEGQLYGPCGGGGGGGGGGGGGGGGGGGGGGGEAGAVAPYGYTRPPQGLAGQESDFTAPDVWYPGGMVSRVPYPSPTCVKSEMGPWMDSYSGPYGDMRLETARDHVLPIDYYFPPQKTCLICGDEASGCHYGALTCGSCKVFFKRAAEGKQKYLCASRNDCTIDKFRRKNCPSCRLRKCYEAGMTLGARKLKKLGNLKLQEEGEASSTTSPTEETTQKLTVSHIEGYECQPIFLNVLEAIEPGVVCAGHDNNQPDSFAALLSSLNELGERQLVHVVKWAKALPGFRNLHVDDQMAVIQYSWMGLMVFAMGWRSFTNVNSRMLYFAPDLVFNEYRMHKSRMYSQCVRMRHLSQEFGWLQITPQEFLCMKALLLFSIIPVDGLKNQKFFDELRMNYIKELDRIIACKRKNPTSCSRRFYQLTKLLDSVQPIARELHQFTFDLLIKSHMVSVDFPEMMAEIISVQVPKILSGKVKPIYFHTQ
Protocol: (§1) First, each test substance is dissolved in DMSO to a concentration of 10^−3 M, and the solution was 10-fold diluted stepwise (serial dilution) to give diluted test sample solutions having a test substance concentration of 10^−3 M to 10^−9 M. Then, each diluted sample solution was 100-fold diluted using a solution prepared by adding 5×10^−9 M) of 5α-dehydrotestosterone to DEMEM/F-12 medium (Gibco) (the test substance concentration becoming 10^−5 M to 10^−11 M).
(§2) CHO-K1 cells were developed on a 96-well plate to a size of about 8000 cells/84 μL of medium per well.
(§3) Separately, a solution for transfection was prepared by diluting 1 ng of pZeoSV-2-AR (prepared above in (1)), 50 ng of pIND ARE-B10 (prepared above in (2)) and 4 ng of pcDNA-EGFP (prepared above in (3)) with 6.25 μL of DMEM/F-12 medium and adding 0.15 μL of FuGENE6™ (Roche) to the dilution.
(§4) On the day after the above development, 6 μL/well of the solution for transfection was added to each well for transfection of the cells in each well (the cell culture fluid volume in each well being about 90 μL). Three hours later, each of serial 10-fold dilutions of each test sample (generally 10^−5 M to 10^−11 M) as prepared using the above-prepared medium (DMEM/F-12) supplemented with 5×10^−9 M of 5a-dehydrotestosterone was added in 10 μL portions, and cultivation was continued at room temperature (the final test substance concentrations: 10^−6 M to 10^−12 M).
(§5) In FIGS. 5 and 6, the ordinate denotes the cell survival rate (%) (the relative EGFP fluorescence intensity value at each test substance concentration as determined by taking the EGFP fluorescence intensity value measured without addition of the test substance as 100; shown by curve (1)) as well as the luciferase activity percentage (shown by curve (2)). The abscissa denotes the test substance concentration (M).

CHO-K1 cells [1] = type: cell-based, hamster
Protocol: as §1, §2, §3, §4
At 24 hours after addition of the serial dilutions of the test sample, the GFP fluorescence intensity in each well was measured at the excitation wavelength of 485 nm and fluorescence wavelength of 535 nm using Berthord's ARVO.
as §5

CHO-K1 cells [2] = type: cell-based; settings: Chinese hamster, 24 h
Protocol: CHO-K1 cells (cells deposited with ATCC) were developed on a 96-well plate (8000 cells/well). On the next day, transfection was carried in each well with 50 ng/well of pGL3-Control (retaining the SV40 promoter and containing the luciferase gene; Promega) and 4 ng/well of pcDNA-EGFP using 0.15 μL of FuGENE6™ (Roche) (at room temperature).
To each well of the cells of the invention as prepared as described above under (4), 3 hours after transfection, DMSO was added to a final concentration of 0.125, 0.25, 1, 2, 4 or 10%.
After 24 hours following the addition of DMSO, the fluorescence intensity of EGFP expressed in each well was measured using Berthord's measuring apparatus ARVO. Immediately thereafter, the luciferase activity was measured using Steady-Glo™ (Promega) as a substrate and using Berthord's measuring apparatus ARVO.
(§6) In FIG. 4, the ordinate denotes the relative survival rate (%) (the relative measurement result value at each DMSO concentration with the measurement result in each test carried out without addition of DMSO being taken as 100), and the abscissa denotes the DMSO concentration (%).

CHO-K1 cells [3] = assay: MTT assay of CHO-K1 cells with pGL3-Control alone, in the presence of DMSO (comparison); type: cell-based, hamster; settings: 24 hours of culture with DMSO; relative to no DMSO = 100
Protocol: For comparison, the following MTT assay and AlamarBlue assay were carried out using the respective assay kits. Thus, CHO-K1 cells with pGL3-Control alone introduced therein were used in lieu of the above-prepared cells, DMSO was added to each well to the same concentration as mentioned above and, after 24 hours of culture, the MTT assay was carried out. The MTT measurement was performed as indicated in the manual attached to the product.
as §6

Compound	antagonistic activity against the androgen receptor (judgment) (androgen receptor)	cytotoxic effect (CHO-K1 cells [1])	other results
O=[N+]([O-])c1ccc(Oc2c(Cl)cc(Cl)cc2Cl)cc1 [CNP, chloronirophen]	has an antagonistic activity against the androgen receptor	any cytotoxic effect will not manifest itself	–
C[S+](C)[O-] [DMSO, dimethyl sulfoxide]	–	–	DMSO concentration from which decreases in luciferase activity are observed (CHO-K1 cells [2]): about 0.25%; DMSO concentration at which a decrease in MTT activity is first observed (CHO-K1 cells [3]): ≥ 4%
CC(=O)O[C@]1(C(C)=O)CC[C@H]2[C@@H]3C=C(Cl)C4=CC(=O)[C@@H]5C[C@@H]5[C@]4(C)[C@H]3CC[C@@]21C [cyproterone acetate, Cyproterone acetate]	–	no cytotoxic effect was observed	EGFP activity (cell survival rate) (CHO-K1 cells [1]; Chinese hamster, 24 h): ~100%
CC1(C)CNC(=NN=C(/C=C/c2ccc(C(F)(F)F)cc2)/C=C/c2ccc(C(F)(F)F)cc2)NC1 [hydramethylnone, Hydramethylnone]	no antagonistic activity	–	luciferase activity (androgen receptor; with 5×10^−9 M 5α-dehydrotestosterone, 24 hours after addition of test substance): decreases in luciferase activity were due to cytotoxicity
